Measured values from article PMC12152147, “DDB1 engagement defines the selectivity of S656 analogs for cyclin K degradation over CDK inhibition” (EMBO Reports, 2025).
“And” between values parts separate entries of the source, which are not always exact repeats. Equal values may be shown once.

Tests used:
[1] = tested on: cyclin K, CDK12, RNA polymerase II phospho-ser2, MYC, MCL-1 protein levels; experiment: Immunoblot analysis of protein levels; type: cell-based, H. sapiens; conditions: for RNA polymerase II phospho-ser2 level (immunoblot): OCI-AML5, 5 μM for 5 h
Protocol: Total proteins were extracted using RIPA buffer (20 mM Tris-HCl pH 7.4, 150 mM NaCl, 5 mM MgCl2, 5 mM EGTA, 60 mM β-glycerophosphate, 0.1% NP40, 0.1% Triton X-114, 1 mM DTT) supplemented with protease inhibitors (cOmplete, EDTA-free protease inhibitor tablets), and quantified by the bicinchoninic acid (BCA) method using a BSA standard curve. Proteins were resolved by SDS-PAGE, transferred onto PVDF membrane, blocked with 5% milk and probed with primary (overnight, 4 °C) and secondary (1 h, room temperature) antibodies.

[2] = tested on: CD34+ cord blood cells; experiment: Chemical screen / dose response on CD34+ cord blood cells; type: cell-based, Human
Protocol: Fresh umbilical cord blood units were collected from consenting donors according to ethically approved procedures at St Justine, Maisonneuve-Rosemont (Montréal, QC, Canada) and Charles Le Moyne (Longueuil, QC, Canada, approval reference number AA-HCLM-16-014) Hospitals. Human CD34^+ cells were isolated using the EasySep Human Cord Blood CD34^+ Selection Kit through positive magnetic selection. Chemical screen was performed as described in primary AML with the following modifications: 2000 cord blood cells were seeded, CB media contains StemSpan-ACF supplemented with 100 ng/mL SCF, 100 ng/mL FLT3L, 50 ng/mL TPO, 10 μg/mL LDL, 1× glutamax, gentamicin (50 μg/mL), ciprofloxacin (10 μg/mL), SR1 (500 nmol/L) and UM729 (500 nmol/L).
Dose-response assays in primary AML specimens were performed as in chemical screen (see above) with the exception that compounds were tested in serial dilution (8 dilutions, 1:4, 10 μM down to 0.5 nM). Dose-response assays in OCI-AML5 cell line were conducted similarly with the following modifications: 300 cells per well were seeded in 50 μL of cell line media and cell viability was evaluated after 4 days in culture.

[3] = tested on: OCI-AML5 cells; experiment: Cell death by Annexin V/PI staining; type: cell-based, H. sapiens; conditions: 24 h
[4] = target: T1, CDK12-DDB1 interaction (Homo sapiens, UniProt Q16531+Q9NYV4); experiment: NanoLuc Binary Technology CDK12-DDB1 interaction in HEK293 cells; type: cell-based, H. sapiens; conditions: HEK293, monitored over 1 h
T1 construct: The kinase domain of CDK12 was fused to the Large BiT (LgBiT); expressed in transfected cells; host or cells: HEK293
Excerpt: Using the NanoBiT PPI MCS starter system vectors, we generated fusion proteins of CDK12 and DDB1 to monitor their interaction in living cells through a structural complementation reporter system for the NanoLuc. The kinase domain of CDK12 was fused to the Large BiT (LgBiT) while DDB1 was fused to the Small Bit (SmBiT), both in N-terminal. The primers used to clone CDK12 and DDB1 in NanoBit vectors by Gibson assembly are as follows: N-LgBiT-CDK12KD-F: […]; N-LgBiT-CDK12KD-STOP-R: […]; N-SmBiT-DDB1-F: […]; N-SmBiT-DDB1-GA-R: […].
Both CDK12-LgBiT and DDB1-SmBiT generated plasmids were then transfected in HEK293 cells using JetPrime transfection reagent according to the manufacturer’s instructions and plated 24 h later in white 384-well plate (20,000 cells /well). After 4 h, 5× D-blue substrate was added to each well, incubated for 5 min at obscurity, prior to addition of compounds of interest at increasing concentrations. Luminescence was monitored for 1 h using the Neo Synergy BioTek plate reader.

[5] = target: T2, OCI-AML5 total protein extracts (cyclin K, CDKs, DDB1) (Homo sapiens, UniProt Q9NYV4); experiment: Pull-down with immobilized probes and quantitative mass spectrometry; type: binding, H. sapiens; conditions: OCI-AML5 total protein extracts; DEP analysis
T2 construct: endogenous in cells; host or cells: OCI-AML5 total protein extract
Protocol: (§1) Probe compounds were immobilized through their terminal amine on NHS-sepharose beads as previously described (Médard et al, [2015]). The prepared beads were then washed in PBS and equilibrated in Triton X-100 buffer. For each replicate, 1–2 mg of total proteins (2 mg/ml) were incubated end-over-end with 25 μl of beads overnight at 4 °C in low protein binding microtubes (Sarstedt). The samples were then washed twice in Triton X-100 buffer, transferred to new microtubes and further washed six times in PBS including another microtube transfer at the last wash. Beads pellets were resuspended in 50 mM ammonium bicarbonate and subjected to reduction, alkylation and tryptic digest as described above. Peptides were separated on an home-made reversed-phase column (150-μm i.d. by 200 mm) with a 56-min gradient from 10 to 30% ACN-0.2% FA and a 600-nl/min flow rate on a Easy nLC-1200 connected to a Exploris 480 (ThermoFisher Scientific, San Jose, CA). Each full MS spectrum acquired at a resolution of 120,000 was followed by tandem-MS (MS-MS) spectra acquisition on the most abundant multiply charged precursor ions for 3 s. Tandem-MS experiments were performed using higher energy collision dissociation (HCD) at a collision energy of 34%. The data were processed using PEAKS X Pro (Bioinformatics Solutions, Waterloo, ON) and a Uniprot human database (20366 entries). Mass tolerances on precursor and fragment ions were 10 ppm and 0.01 Da, respectively. Fixed modification was carbamidomethyl (C). Variable selected posttranslational modifications were acetylation (N-ter), oxidation (M), deamidation (NQ), phosphorylation (STY). The data were visualized with Scaffold 5.0 (protein threshold, 99%, with at least 2 peptides identified and a false-discovery rate [FDR] of 1% for peptides).
(§2) Differential Enrichment analysis of Proteomics data (DEP) package (Zhang et al, [2018]) in R was used to analyze the data (excluding proteins identified based on a single peptide), including data filtering, normalization, imputation of missing values and statistical testing of differentially expressed proteins.

[6] = target: T3, OCI-AML5 total protein extracts (cyclin K, CDKs, DDB1) (Homo sapiens, UniProt Q16531); experiment: as above; type: binding, H. sapiens; conditions: OCI-AML5 total protein extracts
T3 construct: endogenous in cells; host or cells: OCI-AML5 total protein extract
Protocol: as §1, §2

[7] = target: T4, OCI-AML5 total protein extracts (cyclin K, CDKs, DDB1) (Homo sapiens, UniProt P06493); experiment: as above; type: binding, H. sapiens; conditions: OCI-AML5 total protein extracts; DEP analysis
T4 construct: endogenous in cells; host or cells: OCI-AML5 total protein extract
Protocol: as §1, §2

[8] = OCI-AML5, increasing concentrations, 6 h

T4 sequence (P06493 whole entry): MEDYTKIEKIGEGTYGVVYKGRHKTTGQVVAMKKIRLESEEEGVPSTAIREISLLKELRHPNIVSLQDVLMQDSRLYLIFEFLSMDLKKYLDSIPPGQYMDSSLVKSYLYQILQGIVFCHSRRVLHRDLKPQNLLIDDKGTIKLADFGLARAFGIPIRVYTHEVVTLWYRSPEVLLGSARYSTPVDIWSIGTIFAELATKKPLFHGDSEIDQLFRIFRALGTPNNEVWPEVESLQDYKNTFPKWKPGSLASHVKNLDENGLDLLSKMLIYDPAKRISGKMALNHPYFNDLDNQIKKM
T2 sequence (Q9NYV4 whole entry): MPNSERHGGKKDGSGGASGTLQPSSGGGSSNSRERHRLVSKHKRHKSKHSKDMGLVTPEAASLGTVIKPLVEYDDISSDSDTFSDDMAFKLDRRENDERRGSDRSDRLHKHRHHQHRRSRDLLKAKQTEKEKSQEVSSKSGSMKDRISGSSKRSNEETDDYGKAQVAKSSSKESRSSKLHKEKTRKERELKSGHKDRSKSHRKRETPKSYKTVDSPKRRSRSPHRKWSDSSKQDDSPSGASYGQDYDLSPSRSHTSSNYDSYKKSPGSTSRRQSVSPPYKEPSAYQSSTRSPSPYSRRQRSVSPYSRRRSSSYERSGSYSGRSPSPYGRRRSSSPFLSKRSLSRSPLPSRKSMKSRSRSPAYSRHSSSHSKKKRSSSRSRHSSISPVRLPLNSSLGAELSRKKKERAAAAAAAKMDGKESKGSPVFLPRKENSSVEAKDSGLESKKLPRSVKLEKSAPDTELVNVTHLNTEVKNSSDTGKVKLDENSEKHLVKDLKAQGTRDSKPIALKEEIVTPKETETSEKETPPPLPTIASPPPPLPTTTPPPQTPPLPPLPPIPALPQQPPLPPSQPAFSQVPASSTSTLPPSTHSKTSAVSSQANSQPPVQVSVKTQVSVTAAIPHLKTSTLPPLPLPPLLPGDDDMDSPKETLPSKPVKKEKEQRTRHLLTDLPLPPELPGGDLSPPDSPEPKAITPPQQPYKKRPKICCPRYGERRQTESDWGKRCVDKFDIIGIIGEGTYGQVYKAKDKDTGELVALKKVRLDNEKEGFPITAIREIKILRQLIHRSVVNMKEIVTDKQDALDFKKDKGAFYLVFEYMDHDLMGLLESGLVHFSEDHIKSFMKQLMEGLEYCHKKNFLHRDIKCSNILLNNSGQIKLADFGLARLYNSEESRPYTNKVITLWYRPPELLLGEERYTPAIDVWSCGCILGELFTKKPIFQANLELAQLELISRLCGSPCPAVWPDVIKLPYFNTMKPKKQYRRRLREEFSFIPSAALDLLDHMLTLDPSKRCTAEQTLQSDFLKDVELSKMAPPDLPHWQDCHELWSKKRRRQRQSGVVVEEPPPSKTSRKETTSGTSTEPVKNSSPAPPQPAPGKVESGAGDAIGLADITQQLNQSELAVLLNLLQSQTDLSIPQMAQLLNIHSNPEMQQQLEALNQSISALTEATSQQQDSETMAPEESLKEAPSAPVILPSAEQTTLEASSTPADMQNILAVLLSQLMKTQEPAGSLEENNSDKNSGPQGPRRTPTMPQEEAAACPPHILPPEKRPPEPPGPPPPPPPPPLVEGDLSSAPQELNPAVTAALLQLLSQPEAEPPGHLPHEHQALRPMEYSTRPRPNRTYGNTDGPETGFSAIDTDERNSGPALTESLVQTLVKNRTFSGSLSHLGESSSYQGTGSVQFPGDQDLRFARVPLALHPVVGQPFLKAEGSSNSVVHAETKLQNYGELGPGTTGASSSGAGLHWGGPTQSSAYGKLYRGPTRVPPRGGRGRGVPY
T1 sequence (Q9NYV4 727-1020 limits assumed): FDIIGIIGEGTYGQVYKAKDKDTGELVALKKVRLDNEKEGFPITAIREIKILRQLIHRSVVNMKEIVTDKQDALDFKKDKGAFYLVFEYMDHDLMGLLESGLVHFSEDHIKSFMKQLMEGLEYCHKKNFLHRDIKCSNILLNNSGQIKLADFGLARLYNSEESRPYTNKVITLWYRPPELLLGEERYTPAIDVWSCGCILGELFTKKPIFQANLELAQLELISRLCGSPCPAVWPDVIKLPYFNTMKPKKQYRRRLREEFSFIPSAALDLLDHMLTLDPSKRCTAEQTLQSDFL
T1 sequence (Q16531 whole entry, the tested form may be a part): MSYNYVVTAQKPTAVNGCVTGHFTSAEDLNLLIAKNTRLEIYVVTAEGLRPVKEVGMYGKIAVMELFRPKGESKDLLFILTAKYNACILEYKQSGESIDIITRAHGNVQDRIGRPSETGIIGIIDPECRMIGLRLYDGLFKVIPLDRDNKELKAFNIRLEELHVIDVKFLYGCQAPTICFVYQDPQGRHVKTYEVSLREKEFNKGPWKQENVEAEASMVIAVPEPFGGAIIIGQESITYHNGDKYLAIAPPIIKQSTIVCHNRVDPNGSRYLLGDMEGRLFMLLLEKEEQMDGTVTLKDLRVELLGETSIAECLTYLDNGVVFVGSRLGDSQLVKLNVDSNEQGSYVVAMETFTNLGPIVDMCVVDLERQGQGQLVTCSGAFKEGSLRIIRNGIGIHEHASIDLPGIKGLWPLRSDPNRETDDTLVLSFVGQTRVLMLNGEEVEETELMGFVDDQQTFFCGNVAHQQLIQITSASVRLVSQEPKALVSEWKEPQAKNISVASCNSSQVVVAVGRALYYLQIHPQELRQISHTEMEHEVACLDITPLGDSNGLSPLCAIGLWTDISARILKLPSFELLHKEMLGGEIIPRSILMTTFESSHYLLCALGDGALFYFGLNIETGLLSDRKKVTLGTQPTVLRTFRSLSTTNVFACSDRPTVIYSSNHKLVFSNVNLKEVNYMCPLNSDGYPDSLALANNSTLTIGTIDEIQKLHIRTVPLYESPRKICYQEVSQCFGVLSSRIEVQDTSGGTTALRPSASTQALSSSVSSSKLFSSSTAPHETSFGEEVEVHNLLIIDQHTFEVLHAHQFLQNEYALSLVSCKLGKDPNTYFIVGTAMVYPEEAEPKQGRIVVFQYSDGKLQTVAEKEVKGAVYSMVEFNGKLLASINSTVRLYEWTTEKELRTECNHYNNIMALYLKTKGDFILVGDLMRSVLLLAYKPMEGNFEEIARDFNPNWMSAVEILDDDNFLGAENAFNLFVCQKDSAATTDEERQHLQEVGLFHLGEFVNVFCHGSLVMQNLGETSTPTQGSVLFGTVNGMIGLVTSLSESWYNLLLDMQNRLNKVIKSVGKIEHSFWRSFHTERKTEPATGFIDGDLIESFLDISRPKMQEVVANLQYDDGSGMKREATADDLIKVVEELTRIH
T1 sequence (O75909 whole entry partner, the tested form may be a part): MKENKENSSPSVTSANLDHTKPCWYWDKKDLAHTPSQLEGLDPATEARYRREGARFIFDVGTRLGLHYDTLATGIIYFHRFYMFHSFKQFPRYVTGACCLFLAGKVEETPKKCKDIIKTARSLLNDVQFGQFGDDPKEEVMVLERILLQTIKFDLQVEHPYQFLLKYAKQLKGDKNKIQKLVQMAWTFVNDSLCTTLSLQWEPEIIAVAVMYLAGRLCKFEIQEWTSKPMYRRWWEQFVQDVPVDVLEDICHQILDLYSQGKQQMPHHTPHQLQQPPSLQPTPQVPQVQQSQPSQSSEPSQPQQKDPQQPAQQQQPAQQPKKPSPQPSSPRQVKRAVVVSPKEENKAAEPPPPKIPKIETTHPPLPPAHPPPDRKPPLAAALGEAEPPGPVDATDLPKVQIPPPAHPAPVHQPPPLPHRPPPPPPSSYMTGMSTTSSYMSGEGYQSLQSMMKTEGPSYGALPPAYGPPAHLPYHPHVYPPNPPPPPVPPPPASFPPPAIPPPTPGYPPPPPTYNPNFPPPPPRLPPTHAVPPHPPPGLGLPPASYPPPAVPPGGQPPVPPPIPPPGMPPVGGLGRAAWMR
T3 sequence (Q16531 whole entry): as the sequence (Q16531 whole entry, the tested form may be a part) above

For `Cc1cccc(Nc2nc(CC(=O)Nc3ncc(C)s3)cs2)n1` [HQ461], the “RNA polymerase II phospho-ser2 level (immunoblot)” value [1] was “reduced levels of RNA polymerase II phospho-ser2” and the “cyclin K protein level (immunoblot)” value [1, 8] was “dose-dependent cyclin K depletion”.

With `CN(C)c1ccc(CC(=O)Nc2ncc(SCc3cccnc3)s2)cc1` [S656] the IC50 ([2]; Homo sapiens, dose-response, read-out: IC50 on purified CD34+ cells from cord blood) was 1310 nM, the “activity against CD34+ cord blood cells” value ([2]; discovery screen, 1 μM, 6 days) was “low activity” and the “cyclin K protein level (immunoblot)” value ([1]; 3 primary AML specimens, 5 μM, 5 hours) was “strong depletion of cyclin K”. For the same molecule, the “Mcl-1 protein and c-MYC level (immunoblot)” value ([1]; OCI-AML5, 5 μM for 4 h) was “substantial depletion”, the “RNA polymerase II phospho-ser2 level (immunoblot)” value [1] was “reduced levels of RNA polymerase II phospho-ser2” and the “cyclin K protein level (immunoblot)” value [1, 8] was “dose-dependent cyclin K depletion”. For the same molecule, the “Early Apoptosis (FITC+/PI-)” value ([3]; S656 1uM) was 5.3% and 6.01% and 3.13%, the “Live(FITC-/PI-)” value ([3]; S656 1uM) was 87.8% and 65.8% and 86.8% and the “Necrosis (FITC-/PI+)” value ([3]; S656 1uM) was 0.1% and 0.36% and 0.49%. The “Late Apoptosis (FITC+/PI+)” value ([3]; S656 3uM) was 39.5% and 53.2% and 33.4%, the “Live(FITC-/PI-)” value ([3]; S656 3uM) was 44.5% and 40.2% and 57.7% and the “Necrosis (FITC-/PI+)” value ([3]; S656 3uM) was 0.2% and 1.08% and 1.83%. For the same molecule, the “Late Apoptosis (FITC+/PI+)” value ([3]; S656 5uM) was 56.1% and 61.6% and 54.4%, the “Live(FITC-/PI-)” value ([3]; S656 5uM) was 24.3% and 31% and 39% and the “Necrosis (FITC-/PI+)” value ([3]; S656 5uM) was 0.6% and 3.31% and 1.13%. The “CDK12-DDB1 interaction in live cells (NanoLuc luminescence)” value [4] was “efficiently induced an interaction between CDK12 and DDB1”.

For `CN(C)C/C=C/C(=O)Nc1ccc(C(=O)N2CCC[C@@H](Nc3ncc(Cl)c(-c4c[nH]c5ccccc45)n3)C2)cc1` [THZ531], the “CDK12-DDB1 interaction in live cells (NanoLuc luminescence)” value [4] was “not detectable”.

For `CN(CCOCCOCCN)c1ccc(CC(=O)Nc2ncc(SCc3cccnc3)s2)cc1` [UOM-005790], the “pull-down enrichment of CDK12” value [5] was 0.5953 and 0.6765 and 0.5336, the “pull-down enrichment of DDB1” value [6] was “not enriched” and the “pull-down enrichment of CDK1” value [7] was 2.811 and 2.814 and 2.979.
